Common to all, as to assay type: cell-based
Assay [1] relates to Human keratinocytes. The assay is described as follows: Test Example 1: hyaluronic acid production test in human normal keratinocytes. To be noted: N-acetylglucosamine 5 mmol/L, retinyl palmitate 0.0001%, retinoic acid 1.0 mmol/L; for production of hyaluronic acid increased, times as compared with the no-addition group: 24 hours; for Hyaluronic acid production promotion ratio (% ± S.D.): % of hyaluronic acid in medium without test substance, 24 hours after addition. Here is the method: Hyaluronic Acid Production Test to Human Normal Keratinocytes)
(§1) Human keratinocytes (manufactured by Kurabo Industries, Ltd.) were seeded in a 24-well plate, cultured to confluence in a growth medium, and then 5 mmol/L of N-acetylglucosamine, 0.0001% of retinyl palmitate, 0.0001% of retinyl palmitate+5 mmol/L of N-acetylglucosamine, 1.0 mmol/L of retinoic acid, or 1.0 mmol/L of retinoic acid+5 mmol/L of N-acetylglucosamine were added, respectively. 24 hours after the addition, hyaluronic acid released into the medium was determined. The determination of hyaluronic acid was conducted using a commercially available hyaluronic acid determination kit (manufactured by Chugai Diagnostics Science).
The effects of test substances were defined as percentage (%) of the amount of hyaluronic acid in a cultured medium without a test substance.

Assay [2] deals with Human keratinocytes. The assay can be described thus: Test Example 2: hyaluronic acid production test in human keratinocytes (retinoids with or without NAG). The conditions noted are these: RA 1 mmol/L, ROH 1 mmol/L, RPal 0.001%, RAce 0.001%, NAG 5 mmol/L; for amount of hyaluronic acid released into the medium: n=3, 24 hours. The method, then: as §1
Hyaluronic Acid Production Test to Human Keratinocytes
In the same manner as in Test Example 1, the test was conducted (n=3). As the test substance, 1 mmol/L of retinoic acid (hereinafter referred to as RA), 1 mmol/L of retinol (hereinafter referred to as ROH), 0.001% of retinyl palmitate (hereinafter referred to as RPal) and 0.001% of retinyl acetate (hereinafter referred to as RAce) were used, and the determination was conducted with respect to the case where 5 mmol/L of N-acetylglucosamine (hereinafter referred to as NAG) and each of the above test substances were simultaneously added. The results are shown below and in FIG. 1.

In assay [3] the test system is Human keratinocytes. The assay is described as follows: Test Example 3: hyaluronic acid production promotion test in human keratinocytes (â-carotene with or without NAG). The conditions noted are these: â-carotene 10 mmol/L; for amount of hyaluronic acid: n=3, 24 hours. The method, then: as §1
Hyaluronic Acid Production Promotion Test to Human Keratinocytes)
In the same manner as in Test Example 1, the test was conducted and the amount of hyaluronic acid was determined (n=3). As the test substance, 10 mmol/L of â-carotene (hereinafter referred to as âCAR), NAG, and NAG+âCAR were used. The results are shown below and in FIG. 2.

Six compounds from patent publication US20050002879A1, “External skin compositions” (priority 2001, published 2005) can be followed below.

With `CC(=O)N[C@H]1C(O)O[C@H](CO)[C@@H](O)[C@@H]1O` (some centres unmarked) [N-acetylglucosamine], in the assay on Human keratinocytes [1], the “production of hyaluronic acid increased, times as compared with the no-addition group” value is reported as 1.55 times and the “Hyaluronic acid production promotion ratio (% ± S.D.)” value is recorded as 155 ± 11.8%. Further, in the assay on Human keratinocytes [2], the “production of hyaluronic acid increased, times as compared with the no-addition group” value was determined as 1.1 times and the “amount of hyaluronic acid released into the medium” value is 0.12 ig/well. In the assay with Human keratinocytes [3], the “amount of hyaluronic acid” value is 0.18 ig/well and the “production of hyaluronic acid increased, times as compared with the no-addition group” value is reported as 1.3 times.
On to `CC1=C(/C=C/C(C)=C/C=C/C(C)=C/C(=O)O)C(C)(C)CCC1` [retinoic acid, reference compound], for which, in the assay with Human keratinocytes [1], the “production of hyaluronic acid increased, times as compared with the no-addition group” value is recorded as 2.5 times and the “Hyaluronic acid production promotion ratio (% ± S.D.)” value stood at 250 ± 20.8%. Moreover, in the assay with Human keratinocytes [2], the “production of hyaluronic acid increased, times as compared with the no-addition group” value was 3.4 times and the “amount of hyaluronic acid released into the medium” value is 0.37 ig/well.
As to `CC1=C(/C=C/C(C)=C/C=C/C(C)=C/CO)C(C)(C)CCC1` [retinol], in the assay with Human keratinocytes [2], the “production of hyaluronic acid increased, times as compared with the no-addition group” value turned out to be 1.4 times and the “amount of hyaluronic acid released into the medium” value was 0.15 ig/well.
Regarding `CC(=O)OC/C=C(C)/C=C/C=C(C)/C=C/C1=C(C)CCCC1(C)C` [retinyl acetate], in the assay on Human keratinocytes [2], the “production of hyaluronic acid increased, times as compared with the no-addition group” value worked out at 1.6 times and the “amount of hyaluronic acid released into the medium” value was found to be 0.18 ig/well.
As to `CCCCCCCCCCCCCCCC(=O)OC/C=C(C)/C=C/C=C(C)/C=C/C1=C(C)CCCC1(C)C` [retinyl palmitate], in the assay on Human keratinocytes [1], the “production of hyaluronic acid increased, times as compared with the no-addition group” value was determined as 1.23 times and the “Hyaluronic acid production promotion ratio (% ± S.D.)” value was found to be 123 ± 16.4%. For the same compound, in the assay on Human keratinocytes [2], the “production of hyaluronic acid increased, times as compared with the no-addition group” value was determined as 2.0 times and the “amount of hyaluronic acid released into the medium” value turned out to be 0.22 ig/well.
With `CC1=CCCC(C)(C)C1/C=C/C(C)=C/C=C/C(C)=C/C=C/C=C(C)/C=C/C=C(C)/C=C/C1=C(C)CCCC1(C)C` (centres unmarked) [â-carotene], in the assay on Human keratinocytes [3], the “amount of hyaluronic acid” value is 0.16 ig/well and the “production of hyaluronic acid increased, times as compared with the no-addition group” value turned out to be 1.1 times.
